{"source": "patent US8278100B2", "about": "“Lasonolide compounds as reagents for inducing premature chromosome condensation and methods for treating disorders” (The United States of America, as Represented by the …, priority 2008, dated 2012)", "key": {"[1]": {"tested_on": "phosphorylated-H3 Ser28 in CA46 cells", "assay": "Immunofluorescence assay", "assay_type": "cell-based, human", "protocol": "After drug treatments, CA46 cells were cytospun on the slides. Slides were fixed for 20 min with 4% paraformaldehyde in PBS (pH 7.4), and washed twice with PBS. After incubation for 20 min with 70% ethanol and washing with PBS, the cells were incubated in blocking buffer [8% bovine serum albumin (BSA) in PBS] for 1 h before incubation for 2 h with primary antibodies against phosphorylated-H3 Ser28 (Cell signaling) (FIG. 5). Slides were incubated for additional 1 h with the Alex488-conjugated secondary antibody (Alexa Fluoro 488 donkey anti-goat IgG, Molecular Probes, Invitrogen, CA). After three washes in PBS, cells were stained with 0.5 μg/mL propidium iodide (PI) and 100 μg/mL RNase A (Sigma, Mo.) for 15 min in the dark. Finally, slides were washed with PBS for three times and mounted with Vectashield anti-fade mounting media (Vector Laboratories, Inc., Burlingame, Calif.). Images were taken using a Nikon Eclipse TE-300 confocal microscope."}, "human lymphocytes": {"tested_on": "human lymphocytes", "assay": "PCC induction and PI staining", "assay_type": "cell-based", "details": "200 nM Lasonolide A, without additional reagents"}, "PP2A": {"target": "T1, PP2A (Homo sapiens, UniProt P67775)", "T1 construct": "purchased Upstate", "T1 sequence (P67775 whole entry)": "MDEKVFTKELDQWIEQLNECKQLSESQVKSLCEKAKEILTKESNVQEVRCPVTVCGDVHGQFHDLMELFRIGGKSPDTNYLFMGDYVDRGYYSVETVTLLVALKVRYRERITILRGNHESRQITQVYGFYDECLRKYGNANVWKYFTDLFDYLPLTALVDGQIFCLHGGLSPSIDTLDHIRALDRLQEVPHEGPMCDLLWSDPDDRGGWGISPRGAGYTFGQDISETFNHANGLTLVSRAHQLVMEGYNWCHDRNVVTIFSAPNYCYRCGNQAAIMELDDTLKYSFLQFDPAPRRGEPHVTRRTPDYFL", "T1 sequence (P30153 2-589 partner limits assumed)": "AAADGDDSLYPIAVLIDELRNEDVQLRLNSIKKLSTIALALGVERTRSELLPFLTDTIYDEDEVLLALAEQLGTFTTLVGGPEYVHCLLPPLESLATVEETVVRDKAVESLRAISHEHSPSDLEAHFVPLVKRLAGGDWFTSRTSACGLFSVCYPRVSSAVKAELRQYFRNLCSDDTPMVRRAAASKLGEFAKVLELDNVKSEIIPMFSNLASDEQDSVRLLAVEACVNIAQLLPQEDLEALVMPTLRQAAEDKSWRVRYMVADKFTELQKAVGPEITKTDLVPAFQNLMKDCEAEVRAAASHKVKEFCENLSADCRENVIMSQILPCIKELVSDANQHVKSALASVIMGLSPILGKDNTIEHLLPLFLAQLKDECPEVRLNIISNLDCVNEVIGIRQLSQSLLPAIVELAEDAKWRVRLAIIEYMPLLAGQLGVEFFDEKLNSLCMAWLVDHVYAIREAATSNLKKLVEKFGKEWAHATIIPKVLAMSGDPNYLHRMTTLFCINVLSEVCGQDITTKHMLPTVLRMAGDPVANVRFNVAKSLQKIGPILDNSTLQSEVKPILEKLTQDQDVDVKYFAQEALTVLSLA", "assay": "In vitro phosphatase activity assay", "assay_type": "biochemical", "details": "compared with Okadaic Acid", "protocol": "(§1) The inhibitory effect of active agents on PP2A or PP1 enzyme activity was determined by measuring the generation of free PO4 from the phosphopeptide RRA(pT)VA, using the molybdate-malachite green-phosphate complex assay. The phosphatase assay was performed in a PP2A-specific reaction buffer [50 mM imidazole (pH 7.2), 0.2 mM EGTA, 0.02% 2-mercaptoethanol, 0.1 mg/mL of bovine serum albumin] using 10 μ/M phosphopeptide substrate and 0.03 Units PP2A (Upstate), or in PP1-specific reaction buffer [50 mM HEPES, 2 mM Dithiothreitol, 0.025% Tween-20, 0.1 mM EGT 100 mM NaCl] together with 100 μM phosphopeptide substrate and 0.03 Units PP1 (Biolabs). Different concentrations of active agents were added in the reaction system. After a 20-min incubation at 30° C., molybdate dye was added, and the amount of free phosphate generated was determined from the optical density at 630 nm (VERSAmax, Molecular Device), using a standard curve for free phosphate. Phosphatase activity was defined as picomoles of free PO4 generated per minute per microgram of protein, and phosphatase activity without drug was defined as 100% (FIGS. 3C & 3D)."}, "PP1": {"target": "T2, PP1 (Oryctolagus cuniculus, UniProt P62139)", "T2 construct": "purchased Biolabs", "T2 sequence (P62139 whole entry)": "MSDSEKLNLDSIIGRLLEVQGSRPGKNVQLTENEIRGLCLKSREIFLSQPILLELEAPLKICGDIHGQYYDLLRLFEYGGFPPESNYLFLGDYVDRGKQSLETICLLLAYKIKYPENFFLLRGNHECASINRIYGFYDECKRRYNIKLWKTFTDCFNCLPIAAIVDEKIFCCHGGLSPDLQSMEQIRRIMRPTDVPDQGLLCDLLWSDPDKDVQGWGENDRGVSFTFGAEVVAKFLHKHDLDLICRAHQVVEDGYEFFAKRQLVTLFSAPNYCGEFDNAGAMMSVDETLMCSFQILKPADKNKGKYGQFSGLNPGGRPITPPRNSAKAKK", "assay": "In vitro phosphatase activity assay", "assay_type": "biochemical", "details": "compared with Okadaic Acid", "protocol": "as §1"}, "tumor cells": {"tested_on": "tumor cells", "assay": "Premature chromosome condensation (PCC) induction, cells not specified", "assay_type": "cell-based", "protocol": "Burkitt's Lymphoma CA46 cells (500,000) (FIG. 1B) or breast cancer MDA-MB-231 cells (500,000) (FIG. 1A) were treated by 100 nM Lasonolide A (stock solution 100 μM in DMSO) for 1 h. Lymphocytes were treated with 200 nM Lasonolide A for 1 h. Cells were harvested with centrifuging on 2,000 rpm for 5 min at 4° C. Pellets were washed once by PBS and re-suspended in 1 mL PBS. 200 μL cells mixture were added to the chamber for cytospining. Cells were cytospun on 800 rpm for 10 min; slides were fixed in fresh-made 4% paraformaldehyde fixation for 20 min at room temperature, then moved to 70% ethanol for 20 min. Slides were stained with Propidium Iodide (“PI”) (20 μg/mL) and RNase A (100 μg/mL) for 15 min. Slides were washed with PBS for three times and mounted with Vectashield anti-fade mounting media (Vector Laboratories, Inc., Burlingame, Calif.). Images were taken using a Nikon Eclipse TE-300 confocal microscope."}, "CA 46 cells": {"tested_on": "CA 46 cells", "assay": "BrdU incorporation", "assay_type": "cell-based, human", "protocol": "(§2) A number of cells (5×10^5) were pulse-labeled with 50 μmol/L BrdU (Calbiochem, La Jolla, Calif.) for 30 minutes. Cells were collected, fixed in 70% ethanol at 4° C., washed with PBS, resuspended in 3 mL 2 mol/L HCl/0.5% Triton X-100, and left at room temperature for 30 minutes. Cells were spun down after adding 6 mL 0.1 M sodium borate (pH 8.5). Pellets were washed with PBS/0.5% Tween-20 twice, then resuspended in 15 μL FITC-conjuncted anti-BrdU antibody (Becton Dickinson, Franklin Lakes, N.J.). After incubation with the anti-BrdU antibody at room temperature for 60 minutes, pellets were washed once with PBS, and resuspended in 500 μL of PI solution (50 μg/mL PI and 50 μg/mL RNase). Analyses were done with a FACScan flow cytometer (Becton Dickinson, San Jose, Calif.) (FIG. 2B)."}, "MDA-MB-231 cells": {"tested_on": "MDA-MB-231 cells", "assay": "BrdU incorporation", "assay_type": "cell-based, human", "protocol": "as §2"}, "MCF-7 cells": {"tested_on": "MCF-7 cells", "assay": "BrdU incorporation", "assay_type": "cell-based", "protocol": "as §2"}}}
{"compound": "C=C(CCC(C)C)COC(=O)[C@H](O)C/C=C\\C[C@@H]1O[C@@H]2/C=C/C/C=C/C(C)=C\\[C@H]3O[C@@H](C/C=C/C=C/C(=O)O[C@H](C2)[C@@]1(C)CO)C[C@H](O)[C@H]3C", "note": "[Lasonolide A]", "values": [{"measurement": "phosphorylation of H3 (Ser28), immunofluorescence", "setting": "[1]", "value": "showed the phosphorylation of H3 (Ser28)"}, {"measurement": "lymphocytes going to PCC", "setting": "human lymphocytes", "value": 35.5, "unit": "%"}, {"measurement": "inhibitory effect on PP2A", "setting": "PP2A", "value": "weaker inhibitory effect"}, {"measurement": "inhibitory effect on PP1", "setting": "PP1", "value": "weaker inhibitory effect"}, {"measurement": "reversibility of PCC induction", "setting": "tumor cells", "value": "reversible"}, {"measurement": "time to PCC induction", "setting": "tumor cells; nanomolar concentrations", "value": "≤ 1", "unit": "h"}, {"measurement": "PCC induction compared with Okadaic Acid", "setting": "tumor cells; tumor cells and normal human lymphocytes", "value": "more potent ability of PCC induction"}, {"measurement": "DNA replication (BrdU incorporation)", "setting": "CA 46 cells", "value": "decelerated DNA replication"}, {"measurement": "DNA replication (BrdU incorporation)", "setting": "MDA-MB-231 cells", "value": "decelerated DNA replication"}, {"measurement": "DNA replication (BrdU incorporation)", "setting": "MCF-7 cells", "value": "decelerated DNA replication"}]}
